Measured values published in PubChem BioAssay (NCI).
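The compound was tested at five concentrations on cells cultured in 96-well plates, with a 48-hour exposure period. At the GI50, growth is halved. At the TGI there is no net growth.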

Tests used:
Experiment in all cases: NCI tumour cell line growth inhibition, 48 h
[1] = test system: SF-268 CNS
[2] = test system: SF-539 CNS
[3] = test system: MDA-MB-231 breast
[4] = test system: HL-60(TB) leukemia
[5] = test system: SN12C renal
[6] = test system: PC-3 prostate
[7] = test system: SF-295 CNS
[8] = test system: SK-MEL-2 melanoma
[9] = test system: T-47D breast
[10] = test system: SK-MEL-28 melanoma
[11] = test system: UACC-62 melanoma
[12] = test system: NCI/ADR-RES ovarian
[13] = test system: BT-549 breast
[14] = test system: UO-31 renal
[15] = test system: NCI-H460 lung
[16] = test system: OVCAR-3 ovarian
[17] = test system: 786-0 renal
[18] = test system: EKVX NSCLC
[19] = test system: HOP-92 NSCLC
[20] = test system: SK-OV-3 ovarian
[21] = test system: HOP-62 NSCLC
[22] = test system: RPMI-8226 leukemia
[23] = test system: LOX IMVI melanoma
[24] = test system: HCC-2998 colon
[25] = test system: HCT-116 colon
[26] = test system: MALME-3M melanoma
[27] = test system: UACC-257 melanoma
[28] = test system: DU-145 prostate
[29] = test system: ACHN renal
[30] = test system: KM12 colon
[31] = test system: A498 renal
[32] = test system: SK-MEL-5 melanoma
[33] = test system: IGROV1 ovarian
[34] = test system: U251 CNS
[35] = test system: SNB-75 CNS
[36] = test system: SW-620 colon
[37] = test system: MCF7 breast
[38] = test system: NCI-H522 lung
[39] = test system: COLO 205 colon
[40] = test system: OVCAR-5 ovarian
[41] = test system: HCT-15 colon
[42] = test system: SNB-19 CNS
[43] = test system: CCRF-CEM leukemia
[44] = test system: HS 578T breast
[45] = test system: MDA-MB-435
[46] = test system: NCI-H226 lung
[47] = test system: M14 melanoma
[48] = test system: HT29 colon
[49] = test system: OVCAR-8 ovarian
[50] = test system: RXF 393 renal
[51] = test system: A549 NSCLC
[52] = test system: TK-10 renal
[53] = test system: NCI-H23 lung
[54] = test system: OVCAR-4 ovarian
[55] = test system: MOLT-4 leukemia
[56] = test system: CAKI-1 renal

CN(C)CCCn1c2c(c3ccc(-c4ccn[nH]4)cc3c1=O)C(=O)c1ccccc1-2
GI50 [1]: 1850 nM
TGI [1]: 15 µM
GI50 [2]: 1040 nM
TGI [2]: 6.29 µM
GI50 [3]: 1270 nM
TGI [3]: 2.84 µM
GI50 [4]: 34.6 nM
TGI [4]: 0.771 µM
GI50 [5]: 249 nM
TGI [5]: 10 µM
GI50 [6]: 1210 nM
TGI [6]: 2.72 µM
GI50 [7]: 354 nM
TGI [7]: 13.6 µM
GI50 [8]: 18.2 µM
TGI [8]: 35.8 µM
GI50 [9]: 627 nM
TGI [9]: 20.9 µM
GI50 [10]: 2010 nM
TGI [10]: 5.65 µM
GI50 [11]: 718 nM
TGI [11]: 18.9 µM
GI50 [12]: 1480 nM
TGI [12]: 4.76 µM
GI50 [13]: 3100 nM
TGI [13]: 21.1 µM
GI50 [14]: 301 nM
TGI [14]: 1.92 µM
GI50 [15]: 36.3 nM
TGI [15]: 1.55 µM
GI50 [16]: 6.09 µM
TGI [16]: 21.5 µM
GI50 [17]: 218 nM
TGI [17]: 1.82 µM
GI50 [18]: 2.91 µM
TGI [18]: 20.6 µM
GI50 [19]: 129 nM
TGI [19]: 10.9 µM
GI50 [20]: 1.21 µM
TGI [20]: 11.3 µM
GI50 [21]: 181 nM
TGI [21]: 11.6 µM
GI50 [22]: 115 nM
TGI [22]: 1390 nM
GI50 [23]: 104 nM
TGI [23]: 1460 nM
GI50 [24]: 10 µM
TGI [24]: 24 µM
GI50 [25]: 391 nM
TGI [25]: 2230 nM
GI50 [26]: 931 nM
TGI [26]: 2.47 µM
GI50 [27]: 12.3 µM
TGI [27]: 29.1 µM
GI50 [28]: 197 nM
TGI [28]: 10.5 µM
GI50 [29]: 94.8 nM
TGI [29]: 1930 nM
GI50 [30]: 527 nM
TGI [30]: 2.08 µM
GI50 [31]: 10.6 µM
TGI [31]: 30.9 µM
GI50 [32]: 481 nM
TGI [32]: 16.4 µM
GI50 [33]: 583 nM
TGI [33]: 2.51 µM
GI50 [34]: 183 nM
TGI [34]: 1570 nM
GI50 [35]: 1390 nM
TGI [35]: 17.3 µM
GI50 [36]: 204 nM
TGI [36]: 2170 nM
GI50 [37]: 37.8 nM
TGI [37]: 1.54 µM
GI50 [38]: 836 nM
TGI [38]: 18 µM
GI50 [39]: 4.92 µM
TGI [39]: 23.7 µM
GI50 [40]: 1510 nM
TGI [40]: 5.47 µM
GI50 [41]: 91.5 nM
TGI [41]: 1.48 µM
GI50 [42]: 332 nM
TGI [42]: 1.82 µM
GI50 [43]: 29.1 nM
TGI [43]: 1040 nM
GI50 [44]: 4.9 µM
TGI [44]: 27.1 µM
GI50 [45]: 10.3 µM
TGI [45]: 23.7 µM
GI50 [46]: 0.273 µM
TGI [46]: 1.53 µM
GI50 [47]: 1650 nM
TGI [47]: 13.9 µM
GI50 [48]: 344 nM
TGI [48]: 1990 nM
GI50 [49]: 163 nM
TGI [49]: 2.27 µM
GI50 [50]: 1660 nM
TGI [50]: 9.57 µM
GI50 [51]: 57.8 nM
TGI [51]: 1.42 µM
GI50 [52]: 2750 nM
TGI [52]: 18.8 µM
GI50 [53]: 243 nM
TGI [53]: 1.83 µM
GI50 [54]: 1450 nM
TGI [54]: 4.06 µM

CCOC(=O)c1nnn(-c2no[n+]([O-])c2-c2ccc(OC)cc2)c1COc1cccc2cccnc12
GI50 [1]: 3030 nM
TGI [1]: 15 µM
GI50 [2]: 2190 nM
TGI [2]: 6.13 µM
GI50 [3]: 2730 nM
TGI [3]: 7.98 µM
GI50 [4]: 1070 nM
TGI [4]: 5.31 µM
GI50 [5]: 638 nM
TGI [5]: 3.55 µM
GI50 [6]: 3980 nM
TGI [6]: 16.3 µM
GI50 [7]: 3090 nM
TGI [7]: 13.7 µM
GI50 [8]: 1.98 µM
TGI [8]: 9.95 µM
GI50 [9]: 4670 nM
TGI [9]: 28.8 µM
GI50 [10]: 2220 nM
TGI [10]: 6.15 µM
GI50 [11]: 2380 nM
TGI [11]: 12.8 µM
GI50 [12]: 3050 nM
TGI [12]: 21.9 µM
GI50 [13]: 657 nM
TGI [13]: 3.1 µM
GI50 [14]: 2450 nM
TGI [14]: 8.2 µM
GI50 [15]: 3290 nM
TGI [15]: 11.5 µM
GI50 [16]: 2.8 µM
TGI [16]: 7.05 µM
GI50 [17]: 2290 nM
TGI [17]: 5.24 µM
GI50 [18]: 7.79 µM
TGI [18]: 35.2 µM
GI50 [19]: 5090 nM
TGI [19]: 20.6 µM
GI50 [55]: 1910 nM
TGI [55]: 8.47 µM
GI50 [20]: 6.12 µM
TGI [20]: > 100 µM
GI50 [21]: 4700 nM
TGI [21]: 25.9 µM
GI50 [22]: 481 nM
TGI [22]: 3380 nM
GI50 [23]: 355 nM
TGI [23]: 1440 nM
GI50 [24]: 3.38 µM
TGI [24]: 9.98 µM
GI50 [25]: 391 nM
TGI [25]: 3590 nM
GI50 [26]: 2440 nM
TGI [26]: 6.31 µM
TGI [27]: 25.7 µM
GI50 [28]: 5240 nM
TGI [28]: 17.1 µM
GI50 [29]: 1700 nM
TGI [29]: 3290 nM
GI50 [30]: 4320 nM
TGI [30]: 17.8 µM
GI50 [31]: 2.15 µM
TGI [31]: 8.75 µM
GI50 [32]: 3460 nM
TGI [32]: 12.9 µM
GI50 [33]: 4270 nM
TGI [33]: 16 µM
GI50 [35]: 3410 nM
TGI [35]: 14.1 µM
GI50 [36]: 399 nM
TGI [36]: 1800 nM
GI50 [37]: 1970 nM
TGI [37]: 17 µM
GI50 [38]: 510 nM
TGI [38]: 2.16 µM
GI50 [39]: 2.33 µM
TGI [39]: 5.5 µM
GI50 [40]: 2900 nM
TGI [40]: 8.21 µM
GI50 [41]: 2380 nM
TGI [41]: 7.03 µM
GI50 [42]: 3250 nM
TGI [42]: 14 µM
GI50 [43]: 318 nM
TGI [43]: > 100000 nM
GI50 [44]: 2.76 µM
TGI [44]: 13.3 µM
GI50 [45]: 1.16 µM
TGI [45]: 5.09 µM
GI50 [46]: 6.3 µM
TGI [46]: 39.7 µM
GI50 [56]: 2230 nM
TGI [56]: 6.38 µM
GI50 [47]: 1690 nM
TGI [47]: 7.49 µM
GI50 [48]: 1420 nM
TGI [48]: 3450 nM
GI50 [49]: 2230 nM
TGI [49]: 8.03 µM
GI50 [50]: 1770 nM
TGI [50]: 4.07 µM
GI50 [51]: 3870 nM
TGI [51]: 16.1 µM
GI50 [52]: 2590 nM
TGI [52]: 7.35 µM
GI50 [53]: 3790 nM
TGI [53]: 17.1 µM
GI50 [54]: 2340 nM
TGI [54]: 13.3 µM
